# Columns and labels:
# HPAC cells [1] = experiment: Cell cycle distribution by flow cytometry, HPAC; format: cell-based, human; conditions: 1 µM
# Experimental: The effects of FBA-TPQ on cell cycle distribution were analyzed using the previously reported methods; its effects appeared to be cell-line-dependent (Figure 2c). […] The differences in the responses of the different cell lines may be related to their expression of p53.
# To determine the effect of FBA-TPQ on the cell cycle, cells (2–3 × 10^5) were exposed to the test compounds (0, 0.1, 0.5 or 1 µM) and incubated for 24 h prior to analysis. Cells were trypsinized, washed with PBS, and fixed in 1.5 mL of 95% ethanol and 0.5 mL of 0.9% saline solution at 4 °C overnight, followed by incubation with RNAse and staining with propidium iodide (Sigma). The DNA content was determined by flow cytometry. The cell cycle distribution was evaluated by comparing with that of the control cells.
# Mia PaCa-2 cells = experiment: MTT cell survival assay, Mia PaCa-2; format: cell-based; conditions: Homo sapiens, Mia PaCa-2, 72 h, read-out: Cytotoxicity IC50
# Experimental: We evaluated the effects of FBA-TPQ on the survival of several human pancreatic cancer cell lines, including HPAC (p53^+/+), Panc-1(p53^+/−), and Mia PaCa-2(p53^+/−), as well as normal IRM90 fetal fibroblast cells (Figure 2a). Cells were exposed to various concentrations of the test compound (0–10 µM) for 72 h, and cell survival rates were determined by the MTT assay, using a procedure reported previously. FBA-TPQ exerted potent effects against the test cancer cell lines, leading to significant decreases in cell viability.
# Human pancreatic cancer cells were obtained from the American Type Culture Collection (Rockville, MD). All cell culture media contained 10% FBS and 1% penicillin/streptomycin. […]
# The effect of the test compound on human pancreatic cancer cell viability, expressed as the percentage of cell survival, was determined using the MTT (3-(4,5-dimethylthiazol-2-yl)-2,5-diphenyl tetrazolium bromide) assay. […] The absorbance at 570 nm was recorded using an OPTImax microplate reader (Molecular Devices; Sunnyvale, CA, USA). The cell survival percentages were calculated by dividing the mean OD of compound-containing wells by that of DMSO-containing control wells. […]
# [2] = Plasma protein binding by micro-ultrafiltration; format: in vitro ADME; conditions: pooled mouse plasma, 37 °C 1 h, read-out: bound to plasma proteins (converted)
# Experimental: To determine the extent to which FBA-TPQ is bound by plasma proteins, pooled plasma samples were examined for their capacity to bind the compound at concentrations of 0.5 μM and 5 μM. FBA-TPQ was considerably bound to proteins in mouse plasma, with 72.32% ± 2.53%; and 77.78% ± 1.17% of the compound being bound to plasma proteins at concentrations of 0.5 μM and 5.0 μM, respectively. Extensive binding of a candidate compound to plasma proteins can impair its biodistribution and may therefore impact its therapeutic efficacy. However, compounds that are highly bound to proteins display longer half-lives, durations of action, and higher volumes of distribution.
# The extent of binding to mouse plasma proteins by FBA-TPQ was determined using a micro-ultrafiltration system as previously described. FBA-TPQ was dissolved in methanol and added to pooled mouse plasma to yield final concentrations of 0.5 µM and 5.0 µM. Control solutions were prepared in methanol to account for non-specific binding of FBA-TPQ to the filter membranes. Duplicate preparations of each concentration were incubated at 37 °C for 1 h, before being placed into the sample reservoirs of Amicon Centrifree® ultrafiltration tubes (30 kDa exclusion; Millipore).
# Panc-1 cells = experiment: Annexin V apoptosis assay/flow cytometry, Panc-1; format: cell-based, human; conditions: Panc-1, 1 µM, 48 h
# Experimental: (§1) The apoptotic cells were detected using a method reported previously. […] In HPAC cells, a 1 µM concentration of FBA-TPQ increased the apoptotic index two-fold higher than that seen in control cells (P < 0.01). […] In the Mia PaCa-2 cells, FBA-TPQ at 1 µM led to a three-fold increase in apoptosis (P < 0.01).
# (§2) Following a similar protocol as above, cells in early and late stages of apoptosis were detected using an Annexin V-FITC apoptosis detection kit from BioVision (Mountain View, CA, USA), according to the manufacturer’s protocol. For apoptosis experiments, 2–3 × 10^5 cells were exposed to the test compound (0, 0.1, 0.5 and 1.0 µM) and incubated for 48 h prior to analysis. Cells were collected and washed with serum-free media. Cells were then re-suspended in 500 µL of Annexin V binding buffer followed by addition of 5 µL of Annexin V-FITC and 5 µL of propidium iodide (PI). The samples were incubated in the dark for 5 min at room temperature and analyzed with a Becton Dickinson FACSCalibur instrument (Ex = 488 nm; Em = 530 nm). Cells that were positive for Annexin V-FITC alone (early apoptosis) and Annexin V-FITC and PI (late apoptosis) were counted. The apoptotic index was calculated against the untreated control cells.
# [3] = Stability in plasma and tissue samples; format: in vitro ADME, mouse; conditions: RE within ±15%
# Experimental: The stability of FBA-TPQ was evaluated at two concentrations (0.5 and 5.0 µM). […] At the designated time points, the samples were extracted and analyzed using the established RRLC analytical method. The stability of FBA-TPQ was assessed by comparing the initial concentration (time 0) with the final concentration following incubation of the compound at the noted temperatures, and expressing this difference as a percentage of the initial concentration.
# [4] = test system: prostate, breast, and ovarian cancer cell lines; set-up: method as in PMID 19274441, PMID 19451594, PMID 21673964; conditions: cited from earlier work
# HPAC cells [5] = experiment: Annexin V apoptosis assay/flow cytometry, HPAC; format: cell-based, human; conditions: 1 µM, 48 h
# Experimental: as §1, §2
smiles,measurement,setting,value
"O=C1C(NCc2ccc(F)cc2)=CC2=NCCc3c[nH]c1c32 [FBA-TPQ, 7-(4-fluorobenzylamino)-1,3,4,8-tetrahydropyrrolo[4,3,2-de]quinolin-8(1H)-one]",cell cycle arrest,HPAC cells [1],arrest in the G2/M phase
same,IC50,Mia PaCa-2 cells,320 ± 10 nM
same,"fraction unbound at 1 h, 0.5 µM",[2]; 0.5 μM,0.277
same,"fraction unbound at 1 h, 5 µM",[2]; 5.0 μM,0.222
same,increase in apoptosis vs control cells,Panc-1 cells,four-fold
same,stability in plasma and tissue samples,[3]; 3 months at −80 °C,stable
same,stability in plasma and tissue samples,[3]; 2 h at 22 °C following three freeze/thaw cycles (−20 to 22 °C),stable
same,stability in plasma and tissue samples,"[3]; 24 h after preparation at 22 °C, low and high concentrations",stable
same,IC50 values,[4],nanomolar/low micromolar
same,increase of apoptotic index vs control cells,HPAC cells [5],two-fold
